According to ChEMBL document CHEMBL5725356, “Anti-fibrotic pyridinones” (2017):

Test: ET-1 Assay: Fibroblasts (primary human lung and dermal, HFL-1, 3T3 etc) are seeded in 96-well plates at ~15000 cells/well and serum starved for 0-48 hours. After media exchange, compounds serially diluted in DMSO are added to the cells. After a brief incubation of ~30 min, stimulants (TGFb, serum, LPA etc) are added followed by further incubation for 16-48 hours. Media is then harvested and stored frozen in plate format for later endothelin-1 (ET-1) determination by ELISA. Toxicity measurements are made using the ATPlite kit (Perkin-Elmer). ET-1 is quantified using an ELISA kit (R&D Systems). The amount of ET-1 produced in the assay wells are back-calculated using the ELISA standard. The ability of a compound to inhibit ET-1 production is typically analyzed by fitting dose-response curves to a 4-parameter logistic function to obtain an EC50 value.
Conditions: HFL1
For `O=c1ccc(C(F)(F)F)cn1-c1ccc(NCCN2CCN(CCO)CC2)cc1Cl`, the EC50 was “in the range around 125 µM”.
`CCOc1ccc(-n2cc(-c3cnn(C)c3)c(NCc3ccc(F)cc3F)cc2=O)c(C)c1` showed an EC50 of less than 50 µM.
In the case of `CCn1nc2c(-c3cnn(C)c3)cn(-c3ccc(OCCOC)cc3)c(=O)c2n1`, the EC50 is reported as “in the range around 125 µM”.
Work on `CC(C)n1cc(-c2cn(-c3ccc(OC(F)(F)F)cc3)c(=O)c3c2ncn3C)cn1` yielded an EC50 of less than 50 µM.
`CCOc1ccc(-n2cc(-c3cnn(C)c3)c(NCc3ccc(OCCOC)cc3)cc2=O)c(C)c1` showed an EC50 of less than 50 µM.
`CCOc1ccc(CNc2cc(=O)n(-c3ccc(OCC)cc3C)cc2-c2cnn(C)c2)c(C)c1` gave an EC50 of less than 50 µM.
In the case of `CCOc1ccc(-n2cc(-c3ccnnc3)c3nn(CC)nc3c2=O)c(C)c1`, the EC50 is reported as less than 50 µM.
In the case of `CCOc1ccc(-n2cc(-c3cnn(C)c3)c(NCc3ccccn3)cc2=O)c(C)c1`, the EC50 is reported as “in the range around 125 µM”.
For `CC(=O)N1CCc2c(-c3cnn(C)c3)cn(-c3ccc(OC(F)(F)F)cc3)c(=O)c21`, the EC50 was “in the range around 125 µM”.
With `Cn1cc(-c2cn(-c3ccc(OC(F)(F)F)cc3)c(=O)c3cc[nH]c23)cn1` the EC50 was less than 50 µM.
`CCn1nnc2c(-c3ccc(F)cc3)cn(-c3ccc(OC(F)(F)F)cc3)c(=O)c21` showed an EC50 of less than 50 µM.
In the case of `CCOc1ccc(-n2cc(-c3cnn(C)c3)c(OCCOCCOC)cc2=O)c(C)c1`, the EC50 is reported as “in the range around 125 µM”.
In the case of `Cn1cc(-c2cn(-c3ccc(OC(F)(F)F)cc3)c(=O)c3c2CCN3C(=O)OC(C)(C)C)cn1`, the EC50 is reported as less than 50 µM.
In the case of `CCOc1ccc(-n2cc(-c3cnn(C)c3)c(OCCOC(C)C)cc2=O)c(C)c1`, the EC50 is reported as “in the range around 125 µM”.
For `O=c1c2[nH]nnc2c(-c2cn[nH]c2)cn1-c1ccc(OC(F)(F)F)cc1`, the EC50 was “in the range around 125 µM”.
`CCOc1ccc(-n2cc(-c3cnn(C)c3)c(NCc3ccc(C#N)cc3)cc2=O)c(C)c1` showed an EC50 of less than 50 µM.
With `O=c1c2[nH]ncc2c(-c2ccc(F)cc2)cn1-c1ccc(OC(F)(F)F)cc1` the EC50 was less than 50 µM.
For `Cn1cc(-c2cn(-c3ccc(OC(F)(F)F)cc3)c(=O)c3nnn(CCF)c23)cn1`, the EC50 was less than 50 µM.
In the case of `CCOc1ccc(-n2cc(-c3cnn(C)c3)c(NCc3ccncc3)cc2=O)c(C)c1`, the EC50 is reported as “in the range around 125 µM”.
In the case of `Cn1cc(-c2cc(=O)n(-c3ccc(OC(F)(F)F)cc3)cc2-c2cnn(C)c2)cn1`, the EC50 is reported as “in the range around 125 µM”.
Compound `CC(C)OCCn1ccc2c(-c3cn[nH]c3)cn(-c3ccc(OC(F)(F)F)cc3)c(=O)c21` has an EC50 of less than 50 µM.
Work on `CCOCCn1ccc2c(-c3cn[nH]c3)cn(-c3ccc(OC(F)(F)F)cc3)c(=O)c21` yielded an EC50 of less than 50 µM.
`CC(C)n1nnc2c(-c3cnn(C)c3)cn(-c3ccc(OC(F)(F)F)cc3)c(=O)c21` showed an EC50 of less than 50 µM.
Work on `Cc1nc2c(=O)n(-c3ccc(OC(F)(F)F)cc3)cc(-c3cn[nH]c3)c2n1C` yielded an EC50 of less than 50 µM.
In the case of `CCn1ccc2c(=O)n(-c3ccc(OC(F)(F)F)cc3)cc(-c3cnn(C)c3)c21`, the EC50 is reported as less than 50 µM.
For `CCOc1ccc(-n2cc(-c3cnn(C)c3)c(NCc3cccnc3)cc2=O)c(C)c1`, the EC50 was less than 50 µM.
With `CC(C)N1N=NC2C(=O)N(c3ccc(OC(F)(F)F)cc3)C=C(c3cnn(C)c3)C21` (stereo not drawn) the EC50 was “in the range around 125 µM”.
For `O=c1c2[nH]nnc2c(-c2ccc(F)cc2)cn1-c1ccc(OC(F)(F)F)cc1`, the EC50 was “in the range around 125 µM”.
With `CCOc1ccc(-n2cc(-c3cnn(C)c3)c(OC3CCOCC3)cc2=O)c(C)c1` the EC50 was “in the range around 125 µM”.
With `CCOc1ccc(-n2cc(-c3cnn(C)c3)c3nn(CC)nc3c2=O)c(C)c1` the EC50 was “in the range around 125 µM”.
Compound `CCn1nnc2c(=O)n(-c3ccc(OC(F)(F)F)cc3)cc(-c3ccc(F)cc3)c21` has an EC50 of less than 50 µM.
In the case of `CCOc1ccc(-n2cc(-c3cnn(C)c3)c(NCc3cc(F)cc(F)c3)cc2=O)c(C)c1`, the EC50 is reported as less than 50 µM.
`CCOc1ccc(-n2cc(-c3cnn(C)c3)c(N(C)Cc3ccccc3)cc2=O)c(C)c1` showed an EC50 of less than 50 µM.
Compound `Cn1cc(-c2cn(-c3ccc(OC(F)(F)F)cc3)c(=O)c3nn(CCF)nc23)cn1` has an EC50 of less than 50 µM.
In the case of `Cc1nc2c(=O)n(-c3ccc(OC(F)(F)F)cc3)cc(-c3cnn(C)c3)c2n1C`, the EC50 is reported as “in the range around 125 µM”.
In the case of `CCn1nc2c(-c3ccc(F)cc3)cn(-c3ccc(OC(F)(F)F)cc3)c(=O)c2n1`, the EC50 is reported as greater than 200 µM.
In the case of `Cn1cc(-c2cn(-c3ccc(OC(F)(F)F)cc3)c(=O)c3c2nnn3CCF)cn1`, the EC50 is reported as “in the range around 125 µM”.
With `Cn1cc(-c2cn(-c3ccc(OC(F)(F)F)cc3)c(=O)c3ncn(C)c23)cn1` [AKEX-0011] the EC50 was less than 50 µM.
